Source: EP0755932A1, “(Thiophen-2-yl)piperidin or tetrahydropyridin-azabicyclocarboxamides” (AMERICAN HOME PRODUCTS CORPORATION, priority 1995, dated 1997)

Biological target: T1, 5-HT1A serotonin receptor (Rattus norvegicus, UniProt P19327)
T1 construct: from tissue; host or cells: rat brain membranes (inferred from the cited Hall et al. procedure)
T1 sequence (P19327 1-422): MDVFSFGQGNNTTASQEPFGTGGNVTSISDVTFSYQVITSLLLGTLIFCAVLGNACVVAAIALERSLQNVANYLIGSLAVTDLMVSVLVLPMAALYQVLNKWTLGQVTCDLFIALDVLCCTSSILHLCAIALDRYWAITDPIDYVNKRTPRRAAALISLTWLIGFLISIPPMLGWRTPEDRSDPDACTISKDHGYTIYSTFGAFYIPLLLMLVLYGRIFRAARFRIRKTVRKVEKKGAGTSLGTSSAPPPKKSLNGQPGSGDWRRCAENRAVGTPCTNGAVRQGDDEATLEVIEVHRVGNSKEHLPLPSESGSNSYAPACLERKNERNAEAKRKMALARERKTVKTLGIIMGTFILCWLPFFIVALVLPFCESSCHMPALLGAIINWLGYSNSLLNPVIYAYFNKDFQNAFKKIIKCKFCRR
Assay: Displacement of [3H] 8-OHDPAT from the 5-HT1A serotonin receptor (procedure of Hall et al.)
Assay type: binding
From the text: 8-OHDPAT (dipropylaminotetralin) from the 5-HT1A serotonin receptor following the procedure of Hall et al., J. Neurochem. 44, 1685 (1985).

Compound | IC50 [nM]
COc1ccsc1C1(O)CCN(CC[C@@H](C(=O)N2C3CCCC2CC3)c2ccccc2)CC1 [Example 1, (R)-1-(8-Aza-bicyclo[3.2.1.]oct-8-yl)-4-[4-hvdroxy-4-(3-methoxythiophen-2-yl)-piperidin-1-yl]-2-phenylbutan-1-one] | 942
COc1ccsc1C1=CCN(CC[C@@H](C(=O)N2C3CCCC2CC3)c2ccccc2)CC1 [Example 2, (R)-1-(8-Aza-bicyclo[3.2.1.]oct-8-yl)4-[4-(3-methoxythiophen-2-yl)-1,2,3,6-tetrahydropyridin-1-yl]-2-phenylbutan-1-one] | 0.9
